HELM strings list units from the 5' end as sugar, base in round brackets, then linkage (d deoxyribose, r ribose, m 2'-O-methyl, p phosphodiester). Strings are as the collection lists them; they lack the last nucleoside at the 3' end of the tested compound. [moe] = 2'-O-(2-methoxyethyl) (MOE); [sp] = phosphorothioate linkage; [m5C] = 5-methylcytosine

The data set deals with PRNP. Description: mouse, dose not given. As to conditions: ASO.
With “RNA1{[moe]([m5C])[sp].[moe](T)p.[moe](A)p.[moe](T)p.[moe](G)p.d(T)[sp].d(T)[sp].d(T)[sp].d(T)[sp].d([m5C])[sp].d([m5C])[sp].d(A)[sp].d(G)[sp].d(T)[sp].[moe](G)p.[moe]([m5C])p.[moe]([m5C])[sp].[moe]([m5C])}$$$$ (last 3' nucleoside missing)”, the 3 h FOB score amounted to 1 score 0-7.
Substance “RNA1{[moe]([m5C])[sp].[moe](T)p.[moe](A)p.[moe](T)p.d(G)[sp].d(T)[sp].d(T)[sp].d(T)[sp].d(T)[sp].d([m5C])[sp].d([m5C])[sp].d(A)[sp].d(G)[sp].d(T)[sp].[moe](G)p.[moe]([m5C])p.[moe]([m5C])p.[moe]([m5C])[sp].[moe](A)}$$$$ (last 3' nucleoside missing)” returned a 3 h FOB score of 1.25 score 0-7.
As for “RNA1{[moe]([m5C])[sp].[moe](T)p.[moe](A)p.d(T)[sp].d(G)[sp].d(T)[sp].d(T)[sp].d(T)[sp].d(T)[sp].d([m5C])[sp].d([m5C])[sp].d(A)[sp].d(G)[sp].[moe](T)p.[moe](G)p.[moe]([m5C])p.[moe]([m5C])p.[moe]([m5C])[sp].[moe](A)}$$$$ (last 3' nucleoside missing)”, the figure is 0.25 score 0-7; as for “RNA1{[moe]([m5C])[sp].[moe](T)p.[moe](G)p.[moe](G)p.[moe](T)[sp].d(G)[sp].d(A)[sp].d(T)[sp].d(T)[sp].d(T)[sp].d(T)[sp].d(T)[sp].d(T)[sp].d([m5C])[sp].d([m5C])[sp].[moe](T)p.[moe](T)p.[moe](T)[sp].[moe]([m5C])}$$$$ (last 3' nucleoside missing)”, 0 score 0-7.
As for “RNA1{[moe]([m5C])[sp].[moe](T)p.[moe](G)p.[moe](T)p.[moe](T)[sp].d(A)[sp].d(T)[sp].d(G)[sp].d(T)[sp].d(T)[sp].d(A)[sp].d(T)[sp].d(T)[sp].d(A)[sp].d(T)[sp].[moe](T)p.[moe](G)p.[moe](T)[sp].[moe](T)}$$$$ (last 3' nucleoside missing)”, the figure is 3.75 score 0-7; as for “RNA1{[moe]([m5C])[sp].[moe](T)p.[moe](G)p.[moe](T)p.[moe](T)[sp].d(G)[sp].d([m5C])[sp].d(A)[sp].d([m5C])[sp].d(T)[sp].d(A)[sp].d(A)[sp].d(G)[sp].d(T)[sp].d([m5C])[sp].[moe]([m5C])p.[moe](A)p.[moe](A)[sp].[moe](A)}$$$$ (last 3' nucleoside missing)”, 1 score 0-7; as for “RNA1{[moe]([m5C])[sp].[moe](T)p.[moe](G)p.[moe](T)p.[moe]([m5C])[sp].d(A)[sp].d(T)[sp].d([m5C])[sp].d(T)[sp].d([m5C])[sp].d([m5C])[sp].d(A)[sp].d(A)[sp].d([m5C])[sp].d([m5C])[sp].[moe](T)p.[moe](A)p.[moe](A)[sp].[moe](G)}$$$$ (last 3' nucleoside missing)”, 1 score 0-7.
In the case of “RNA1{[moe]([m5C])[sp].[moe](T)p.[moe](G)p.[moe]([m5C])p.[moe]([m5C])[sp].d(T)[sp].d(T)[sp].d(A)[sp].d(A)[sp].d(T)[sp].d(T)[sp].d(A)[sp].d([m5C])[sp].d([m5C])[sp].d(T)[sp].[moe](A)p.[moe](T)p.[moe](A)[sp].[moe](G)}$$$$ (last 3' nucleoside missing)” it was 0.25 score 0-7.
Take “RNA1{[moe]([m5C])[sp].[moe](T)p.[moe](T)p.[moe](A)p.[moe](A)[sp].d(T)[sp].d(T)[sp].d(A)[sp].d(G)[sp].d(T)[sp].d(T)[sp].d(A)[sp].d([m5C])[sp].d(A)[sp].d(T)[sp].[moe]([m5C])p.[moe](G)p.[moe](G)[sp].[moe](G)}$$$$ (last 3' nucleoside missing)”: the 3 h FOB score is 4.5 score 0-7.
As for “RNA1{[moe]([m5C])[sp].[moe](T)p.[moe](T)p.[moe](A)p.[moe](T)[sp].d(T)[sp].d(A)[sp].d(T)[sp].d(T)[sp].d([m5C])[sp].d(A)[sp].d(T)[sp].d(G)[sp].d(T)[sp].d(T)[sp].[moe]([m5C])p.[moe](T)p.[moe]([m5C])[sp].[moe]([m5C])}$$$$ (last 3' nucleoside missing)”, the figure is 1.25 score 0-7; as for “RNA1{[moe]([m5C])[sp].[moe](T)p.[moe](T)p.[moe](A)p.[moe](T)p.d(T)[sp].d(A)[sp].d(T)[sp].d(T)[sp].d([m5C])[sp].d(A)[sp].d(T)[sp].d(G)[sp].d(T)[sp].[moe](T)p.[moe]([m5C])p.[moe](T)[sp].[moe]([m5C])}$$$$ (last 3' nucleoside missing)”, 0 score 0-7; as for “RNA1{[moe]([m5C])[sp].[moe](T)p.[moe](T)p.[moe](A)p.[moe]([m5C])[sp].d(T)[sp].d([m5C])[sp].d(G)[sp].d(G)[sp].d([m5C])[sp].d(T)[sp].d(T)[sp].d(G)[sp].d(T)[sp].d(T)[sp].[moe]([m5C])p.[moe]([m5C])p.[moe](A)[sp].[moe]([m5C])}$$$$ (last 3' nucleoside missing)”, 0 score 0-7.
As for “RNA1{[moe]([m5C])[sp].[moe](T)p.[moe](T)p.[moe](A)p.[moe]([m5C])p.d(T)[sp].d([m5C])[sp].d(G)[sp].d(G)[sp].d([m5C])[sp].d(T)[sp].d(T)[sp].d(G)[sp].d(T)[sp].[moe](T)p.[moe]([m5C])p.[moe]([m5C])[sp].[moe](A)}$$$$ (last 3' nucleoside missing)”, the figure is 1.75 score 0-7; as for “RNA1{[moe]([m5C])[sp].[moe](T)p.[moe](T)p.[moe](T)p.[moe](T)[sp].d([m5C])[sp].d(T)[sp].d(T)[sp].d(T)[sp].d(G)[sp].d([m5C])[sp].d(A)[sp].d([m5C])[sp].d(A)[sp].d([m5C])[sp].[moe](T)p.[moe](G)p.[moe](A)[sp].[moe]([m5C])}$$$$ (last 3' nucleoside missing)”, 4 score 0-7; as for “RNA1{[moe]([m5C])[sp].[moe](T)p.[moe](T)p.[moe](T)p.[moe]([m5C])[sp].d([m5C])[sp].d(T)[sp].d(G)[sp].d(A)[sp].d(T)[sp].d(A)[sp].d(G)[sp].d(T)[sp].d(T)[sp].d([m5C])[sp].[moe](A)p.[moe]([m5C])p.[moe](T)[sp].[moe](G)}$$$$ (last 3' nucleoside missing)”, 2.5 score 0-7.
In the case of “RNA1{[moe]([m5C])[sp].[moe](T)p.[moe]([m5C])p.[moe](A)p.[moe](G)[sp].d(G)[sp].d(T)[sp].d([m5C])[sp].d(T)[sp].d(A)[sp].d([m5C])[sp].d(T)[sp].d([m5C])[sp].d(T)[sp].d(A)[sp].[moe](T)p.[moe](G)p.[moe](T)[sp].[moe](T)}$$$$ (last 3' nucleoside missing)” it was 0 score 0-7; in that of “RNA1{[moe]([m5C])[sp].[moe](T)p.[moe]([m5C])p.[moe](T)p.[moe](A)[sp].d(T)[sp].d(G)[sp].d(T)[sp].d(T)[sp].d(T)[sp].d(T)[sp].d([m5C])[sp].d([m5C])[sp].[moe](A)p.[moe](G)p.[moe](T)[sp].[moe](G)}$$$$ (last 3' nucleoside missing)”, 0.75 score 0-7; in that of “RNA1{[moe]([m5C])[sp].[moe](T)p.[moe]([m5C])p.[moe](T)p.[moe](A)[sp].d(T)[sp].d(G)[sp].d(T)[sp].d(T)[sp].d(T)[sp].d(T)[sp].d([m5C])[sp].d([m5C])[sp].d(A)[sp].d(G)[sp].[moe](T)p.[moe](G)p.[moe]([m5C])[sp].[moe]([m5C])}$$$$ (last 3' nucleoside missing)”, 1 score 0-7.
For the substance “RNA1{[moe]([m5C])[sp].[moe](T)p.[moe]([m5C])p.[moe](T)p.[moe](A)p.[moe](T)p.d(G)[sp].d(T)[sp].d(T)[sp].d(T)[sp].d(T)[sp].d([m5C])[sp].d([m5C])[sp].d(A)[sp].d(G)[sp].d(T)[sp].[moe](G)p.[moe]([m5C])[sp].[moe]([m5C])}$$$$ (last 3' nucleoside missing)”, the 3 h FOB score came out at 2 score 0-7.
Substance “RNA1{[moe]([m5C])[sp].[moe](T)p.[moe]([m5C])p.[moe](T)p.[moe](A)p.d(T)[sp].d(G)[sp].d(T)[sp].d(T)[sp].d(T)[sp].d(T)[sp].d([m5C])[sp].d([m5C])[sp].d(A)[sp].[moe](G)[sp].[moe](T)p.[moe](G)p.[moe]([m5C])}$$$$ (last 3' nucleoside missing)” gave a 3 h FOB score of 1 score 0-7.
The substance “RNA1{[moe]([m5C])[sp].[moe](T)p.[moe]([m5C])p.[moe](T)p.[moe](A)p.d(T)[sp].d(G)[sp].d(T)[sp].d(T)[sp].d(T)[sp].d(T)[sp].d([m5C])[sp].d([m5C])[sp].d(A)[sp].[moe](G)p.[moe](T)p.[moe](G)[sp].[moe]([m5C])}$$$$ (last 3' nucleoside missing)” returned a 3 h FOB score of 0.25 score 0-7.
In the case of “RNA1{[moe]([m5C])[sp].[moe](T)p.[moe]([m5C])p.[moe](T)p.d(A)[sp].d(T)[sp].d(G)[sp].d(T)[sp].d(T)[sp].d(T)[sp].d(T)[sp].d([m5C])[sp].d([m5C])[sp].d(A)[sp].[moe](G)p.[moe](T)p.[moe](G)p.[moe]([m5C])[sp].[moe]([m5C])}$$$$ (last 3' nucleoside missing)” it was 3.25 score 0-7; in that of “RNA1{[moe]([m5C])[sp].[moe](T)p.[moe]([m5C])p.d(T)[sp].d(A)[sp].d(T)[sp].d(G)[sp].d(T)[sp].d(T)[sp].d(T)[sp].d(T)[sp].d([m5C])[sp].d([m5C])[sp].[moe](A)p.[moe](G)p.[moe](T)p.[moe](G)p.[moe]([m5C])[sp].[moe]([m5C])}$$$$ (last 3' nucleoside missing)”, 3 score 0-7.
As for “RNA1{[moe]([m5C])[sp].[moe]([m5C])p.[moe](A)p.[moe](G)p.[moe](A)[sp].d(A)[sp].d(G)[sp].d(T)[sp].d(T)[sp].d(T)[sp].d(A)[sp].d(A)[sp].d([m5C])[sp].d(A)[sp].d(T)[sp].[moe](A)p.[moe](T)p.[moe](T)[sp].[moe](T)}$$$$ (last 3' nucleoside missing)”, the figure is 0 score 0-7; as for “RNA1{[moe]([m5C])[sp].[moe]([m5C])p.[moe](A)p.[moe](G)p.[moe](A)[sp].d(G)[sp].d(G)[sp].d(T)[sp].d(T)[sp].d([m5C])[sp].d(A)[sp].d(G)[sp].d(T)[sp].d(G)[sp].d(T)[sp].[moe](T)p.[moe](G)p.[moe](T)[sp].[moe](G)}$$$$ (last 3' nucleoside missing)”, 6.25 score 0-7.

(Values after the OligoGym collection.)
